We go through one molecule from publication PMC6620293, “Anti-cancer activity of the novel 2-hydroxydiarylamide derivatives IMD-0354 and KRT1853 through suppression of cancer cell invasion, proliferation, and survival mediated by TMPRSS4” (Scientific Reports, 2019).

The target in the assay is dipeptidyl peptidase 4 (DPP4) (Homo sapiens, UniProt P27487). Put plainly: protease activity profiling assay (BPS Bioscience service), […]~[…] compound in […] DMSO. The assay is classed as biochemical.
Chain of dipeptidyl peptidase 4 (DPP4) (P27487 39-766): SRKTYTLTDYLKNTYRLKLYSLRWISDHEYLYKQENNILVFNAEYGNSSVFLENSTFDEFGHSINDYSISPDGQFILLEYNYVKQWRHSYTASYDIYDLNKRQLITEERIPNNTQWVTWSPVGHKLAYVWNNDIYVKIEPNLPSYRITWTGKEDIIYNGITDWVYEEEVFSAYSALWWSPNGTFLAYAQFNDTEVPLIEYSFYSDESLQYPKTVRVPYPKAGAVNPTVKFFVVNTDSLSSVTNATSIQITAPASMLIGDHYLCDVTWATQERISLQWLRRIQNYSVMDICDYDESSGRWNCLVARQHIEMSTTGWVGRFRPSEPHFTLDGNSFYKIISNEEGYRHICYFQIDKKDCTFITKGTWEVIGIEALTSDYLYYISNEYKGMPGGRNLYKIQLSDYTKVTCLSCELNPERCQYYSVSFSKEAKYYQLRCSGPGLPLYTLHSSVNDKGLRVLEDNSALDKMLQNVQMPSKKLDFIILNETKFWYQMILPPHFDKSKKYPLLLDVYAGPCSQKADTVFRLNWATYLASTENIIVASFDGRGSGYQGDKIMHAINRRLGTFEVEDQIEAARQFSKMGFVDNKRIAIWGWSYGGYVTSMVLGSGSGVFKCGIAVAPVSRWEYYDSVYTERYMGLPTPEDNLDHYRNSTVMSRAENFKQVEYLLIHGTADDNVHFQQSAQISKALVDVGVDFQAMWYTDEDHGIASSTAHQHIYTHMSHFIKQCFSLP

Usually IC50 stands for the concentration at which inhibition is half-maximal. A low value points to inhibition by little substance. In turn, `O=C(Nc1cc(C(F)(F)F)cc(C(F)(F)F)c1)c1cc(Cl)ccc1O` [IMD-0354, N-(3,5-Bis-trifluoromethylphenyl)-5-chloro-2-hydroxybenzamide] returned an IC50 of 9.2 µM.
